How the values were obtained:
[1] = system: HiBit-tagged Target C in K562 cells; assay: HiBiT protein abundance assay, Target C; type: cell-based, human; details: HiBiT-modified K562 cells, 24 hours, luminescence
Method: (§1) Compounds described herein were used to screen for effects on quantitative protein abundance using a HiBit assay system (Promega). Quantitative protein abundance was determined by measuring the protein levels of HiBit-tagged protein targets expressed in cell culture via luminescence using the Nano-Glo HiBiT Lytic Detection System, which uses a split complementation assay format to reconstitute NanoBiT enzyme to generate a luminescent signal. A protein abundance assay was developed such that endogenous protein targets could be modified with the HiBiT peptide tag and their abundance could be assessed after compound treatment. Briefly, K562 cell lines containing a HiBiT-modification were treated with various compounds described herein (e.g., compounds of Formulas (I)). After treatment for 24 hours, the protein abundance of a specific target was determined by measuring luminescence.
(§2) Cells were maintained in IMDM with 10% FBS. Before the assay, cells were diluted with […] growth media (IMDM+[…] media) and were seeded in a 384-well plate at a density of 10000 cells/well (for each cell line listed in Table 8). Each compound was prepared as a 10-point 3-fold serial dilution in DMSO with the top dose at a final concentration of 10 μM in the well. Unmodified K562 cells were added at the previously specified density with DMSO to serve as an assay baseline and positive control (PC) and DMSO only with the respective modified cell lines was added to the negative control (NC) columns. Final DMSO concentration was kept at or below 0.25% o. Treated cell plates were placed in an incubator at 37° C. with […] for 24 hours. After 24 hours, 25 μL of Complete HiBit Lytic reagent was added to each well at room temperature (e.g. one plate requiring 10 mL Lytic Buffer, 100 μL LgBiT Protein, 200 μL Lytic Substrate), shaken for 5 minutes at 600 RPM, then left to sit for 10 minutes for signal to stabilize before reading on a Spark Cyto plate reader (Tecan) with a 500 ms measurement time.
(§3) To determine compound effects on protein abundance of each target in Table 9, the percent response for each respective cell line was calculated at each compound concentration as follows:
(§4) For the normalized response at each concentration, a four-parameter logistical regression was fit to the data and the response was interpolated at the […] to determine a concentration for protein abundance at 50% o (IC50) the untreated control.

HTT [2] = assay: RT-qPCR splicing assay, HTT AJ/CJ mRNA; type: cell-based, human; details: A673 or K562 cells; for IC50: decrease in canonical junction mRNA; for AC50: increase in alternative junction mRNA
In short: (§5)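 HTT and MYB canonical (CJ) and alternative-exon (AJ) junction transcripts quantified by one-step RT-qPCR from lysates of A673 or K562 cells treated 24 h with 11-point 3-fold dilutions (top 10 uM, ≤0.25% DMSO). Ct normalized to GAPDH, GUSB or PPIA and DMSO control (2^−ΔΔCt), expressed as % response.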

HTT [3] = assay: Gene panel canonical junction qPCR assay, HTT CJ mRNA (Table 7); type: cell-based, human; details: read-out: HTT CJ mRNA decrease IC50
In short: (§6)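 A673 or K562 cells were treated with compound; lysates went through cDNA synthesis and RT-qPCR, with a probe or primer spanning the canonical exon–exon junction. ΔCt vs housekeeper (GAPDH, GUSB or PPIA), normalized to DMSO (2^(−ΔΔCt)), converted to percentage response; IC50 from 4-parameter logistic fit of CJ decrease.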

[4] = system: HiBit-tagged HTT in K562 cells; assay: HiBiT protein abundance assay, HTT; type: cell-based, human; details: HiBiT-modified K562 cells, 24 hours, luminescence
Method: as §1, §2, §3, §4

[5] = system: HiBit-tagged MYB in K562 cells; assay: HiBiT protein abundance assay, MYB; type: cell-based, human; details: HiBiT-modified K562 cells, 24 hours, luminescence
Method: as §1, §2, §3, §4

Target C = assay: Gene panel canonical junction qPCR assay, Target C CJ mRNA (Table 7); type: cell-based, human; details: Homo sapiens, read-out: Target C CJ mRNA decrease IC50
In short: as §6

SMN2 = assay: Gene panel canonical junction qPCR assay, SMN2 CJ mRNA (Table 7); type: cell-based; details: Homo sapiens, read-out: SMN2 CJ mRNA decrease IC50
In short: as §6

MYB [6] = assay: Gene panel canonical junction qPCR assay, MYB CJ mRNA (Table 7); type: cell-based; details: Homo sapiens, read-out: MYB CJ mRNA decrease IC50
In short: as §6

MYB [7] = assay: RT-qPCR splicing assay, MYB AJ/CJ mRNA; type: cell-based; details: Homo sapiens, A673 or K562 cells, 24 hours; for IC50: decrease in canonical junction mRNA; for AC50: increase in alternative junction mRNA
In short: as §5

Row | IC50 (HTT [2]; Homo sapiens, 24 h) [µM] | IC50 (HTT [3]; Homo sapiens) [µM] | IC50 (Target C) [µM] | IC50 (SMN2) [µM] | IC50 (MYB [6]) [µM] | IC50 (MYB [7]) [µM] | SMILES | IC50 [1] [µM] | AC50 (HTT [2]; Homo sapiens, 24 h) [µM] | IC50 [4] [µM] | IC50 [5] [µM] | IC50 (HTT [2]; 24 hours) [µM] | AC50 (HTT [2]; 24 hours) [µM] | IC50 (HTT [3]) [µM] | AC50 (MYB [7]) [µM]
1 | > 10 | > 10 | 1 to 10 |  |  |  | CC1(C)CC(Nc2ccc3c(n2)CCOc2cc(-c4cn[nH]c4)ccc2-3)CC(C)(C)N1 [Compound 141] | 1 to 10 | > 10 | 1 to 10 | < 0.1 |  |  |  | 
2 | 0.1 to 1 | 0.1 to 1 | 1 to 10 | 0.1 to 1 | 1 to 10 | 1 to 10 | CC1(NC2CCN(c3ccc4c(n3)OCc3cc(-n5nccn5)ccc3-4)C2)CC1 (stereo not shown) [Compound 252, N-(1-methylcyclopropyl)-1-[8-(1,2,3-triazol-2-yl)-6H-isochromeno[3,4-b]pyridin-3-yl]pyrrolidin-3-amine] |  | 1 to 10 |  |  |  |  |  | 1 to 10
3 | 0.1 to 1 | 0.1 to 1 | 1 to 10 | 0.1 to 1 | > 10 | > 10 | CCOc1cc(-c2ccc3c(c2)COc2nc(N4CCC(NC(C)(C)C)C4)ccc2-3)cnn1 (stereo not shown) [Compound 267, N-tert-butyl-1-[8-(6-ethoxypyridazin-4-yl)-6H-isochromeno [3,4-b]pyridin-3-yl]pyrrolidin-3-amine] |  | 1 to 10 |  |  |  |  |  | > 10
4 | > 10 | > 10 | > 10 | > 10 | 1 to 10 | 1 to 10 | c1cc2c(cc1-c1cn[nH]c1)COc1nc(N3CCC34CCNCC4)ccc1-2 [Compound 221, 1-[8-(1H-pyrazol-4-yl)-6H-isochromeno[3,4-b]pyridin-3-yl]-1,7-diazaspiro[3.5]nonane 2,2,2-trifluoroacetate] |  | > 10 |  |  |  |  |  | > 10

Row | SMILES | IC50 (HTT [2]; Homo sapiens, 24 h) [µM] | IC50 (HTT [3]; Homo sapiens) [µM] | IC50 (Target C) [µM] | IC50 (SMN2) [µM] | IC50 (MYB [6]) [µM] | IC50 (MYB [7]) [µM] | IC50 [1] [µM] | AC50 (HTT [2]; Homo sapiens, 24 h) [µM] | IC50 [4] [µM] | IC50 [5] [µM] | IC50 (HTT [2]; 24 hours) [µM] | AC50 (HTT [2]; 24 hours) [µM] | IC50 (HTT [3]) [µM] | AC50 (MYB [7]) [µM]
5 | c1cnn(-c2ccc3c(c2)OCc2nc(N[C@@H]4C[C@H]5CC[C@@H](C4)N5)ccc2-3)c1 [Compound 119] |  |  | 1 to 10 |  |  |  | 1 to 10 |  | 0.1 to 1 | 1 to 10 | > 10 | > 10 | > 10 | 
6 | CN(c1ncc2c(n1)OCc1cc(-c3cnnc(O)c3)ccc1-2)C1CC(C)(C)NC(C)(C)C1 [Compound 277, 5-{3-[methyl(2,2,6,6-tetramethylpiperidin-4-yl)amino]-6H-isochromeno[3,4-d]pyrimidin-8-yl}pyridazin-3-ol] | 0.1 to 1 | 0.1 to 1 | 1 to 10 | 0.1 to 1 | 1 to 10 | 1 to 10 |  | 0.1 to 1 |  |  |  |  |  | 1 to 10

From patent publication US20240400584A1, “COMPOUNDS AND METHODS FOR MODULATING SPLICING” (REMIX THERAPEUTICS INC., priority 2021, published 2024)
